Patent US8426342B2, “Method for weed control in lawn” (priority 2008, dated 2013)

Columns and labels:
Format in all cases: in vivo
[1] = test system: Stellaria media; test: Effectivity testing against weed plants ex. 5.1, Abbott %; conditions: 75 g a.i./ha
Text: (§1) Each plot was divided by different pre-treatments 1 week before application of the trial treatments: • A) Pre-treatment with glyphosate-isopropylammonium allowing to evaluate in this section the pre-emergence effect against weeds. • B) No pre-treatment, present winter annual weeds are received a post-emergence application.
(§2) 2005, applied on dormant turf in winter
(§3) Effectivity was rated in percent (%) herbicidal effect compared with untreated control according to the method of Abbott according to the formula [(X−Y)/X]100 where X is the absolute level/scoring of the control plants, Y is the level/scoring of the treated plants. 100% efficacy means full control; 0% efficacy means no control of the weed; all ratings above 80% are usually acceptable.

[2] = test system: Aphanes arvensis; test: as above; conditions: 151 DAT
Text: as §1, §2, §3

[3] = test system: Poa annua; test: Effectivity testing against weed plants ex. 5.3, in bermuda grass turf, Abbott %; conditions: 210 DAT
Text: (§4) A co-formulation containing a mixture compounds no. […] Granules were applied with a shaker can.
(§5) Location: Sports turf, North Carolina, USA
(§6) Plot size: 1.4 m^2 and 3 replicates per treatment
(§7) Application timing: 27 Mar. 2007, spring application, early post for the weed
(§8) Effectivity was rated in percent (%) herbicidal effect compared with untreated control according to the method of Abbott mentioned above (see 5.1). 100% efficacy means full control; 0% efficacy means no control of the weed; all ratings above 80% are usually acceptable.
(§9) The application and evaluation were performed as described in example 5.2 with the following difference:
(§10) Turf grass species: Cynodon dactylon, variety (bermuda grass)
(§11) Weed species: Digitaria sanguinalis, Poa annua

[4] = test system: Digitaria sanguinalis; test: as above
Text: as §4, §5, §6, §7, §8, §9, §10, §11

Structure (SMILES): Cc1ccc2c(c1)[C@H](Nc1nc(N)nc([C@@H](C)F)n1)[C@@H](C)C2 (stereo in doubt) [(A21)/(A22), indaziflam]
- Herbicidal effect (%) on Stellaria media, Pre-emergence application after pre-treatment ([1]; 124 DAT): 100%
- Herbicidal effect (%) on Stellaria media, Post-emergence application without pre-treatment ([1]; 151 DAT): 100%
- Herbicidal effect (%) on Stellaria media, Pre-emergence application after pre-treatment ([1]; 151 DAT): 100%
- Herbicidal effect (%) on Aphanes arvensis, Post-emergence application without pre-treatment ([2]; 25 g a.i./ha): 100%
- Herbicidal effect (%) on Aphanes arvensis, Pre-emergence application after pre-treatment ([2]; 25 g a.i./ha): 50%
- Herbicidal effect (%) on Aphanes arvensis, Post-emergence application without pre-treatment ([2]; 50 g a.i./ha): 33%
- Herbicidal effect (%) on Aphanes arvensis, Pre-emergence application after pre-treatment ([2]; 50 g a.i./ha): 100%
- Herbicidal effect (%) on Aphanes arvensis, Post-emergence application without pre-treatment ([2]; 75 g a.i./ha): 100%
- Herbicidal effect (%) on Aphanes arvensis, Pre-emergence application after pre-treatment ([2]; 75 g a.i./ha): 100%
- Herbicidal effect (%) on Poa annua ([3]; 12.5 g a.i./ha): 70%
- Herbicidal effect (%) on Poa annua ([3]; 25.0 g a.i./ha): 97%
- Herbicidal effect (%) on Poa annua ([3]; 50.0 g a.i./ha): 100%
- Herbicidal effect (%) on Poa annua ([3]; 100.0 g a.i./ha): 100%
- Herbicidal effect (%) on Poa annua ([3]; 200.0 g a.i./ha): 100%
- Herbicidal effect (%) on Digitaria sanguinalis ([4]; 12.5 g a.i./ha, 35 DAT): 87%
- Herbicidal effect (%) on Digitaria sanguinalis ([4]; 12.5 g a.i./ha, 56 DAT): 63%
- Herbicidal effect (%) on Digitaria sanguinalis ([4]; 12.5 g a.i./ha, 68 DAT): 73%
- Herbicidal effect (%) on Digitaria sanguinalis ([4]; 12.5 g a.i./ha, 107 DAT): 70%
- Herbicidal effect (%) on Digitaria sanguinalis ([4]; 12.5 g a.i./ha, 138 DAT): 43%
- Herbicidal effect (%) on Digitaria sanguinalis ([4]; 12.5 g a.i./ha, 180 DAT): 57%
- Herbicidal effect (%) on Digitaria sanguinalis ([4]; 25.0 g a.i./ha, 35 DAT): 95%
- Herbicidal effect (%) on Digitaria sanguinalis ([4]; 25.0 g a.i./ha, 56 DAT): 96%
- Herbicidal effect (%) on Digitaria sanguinalis ([4]; 25.0 g a.i./ha, 68 DAT): 98%
- Herbicidal effect (%) on Digitaria sanguinalis ([4]; 25.0 g a.i./ha, 107 DAT): 97%
- Herbicidal effect (%) on Digitaria sanguinalis ([4]; 25.0 g a.i./ha, 138 DAT): 93%
- Herbicidal effect (%) on Digitaria sanguinalis ([4]; 25.0 g a.i./ha, 180 DAT): 93%
- Herbicidal effect (%) on Digitaria sanguinalis ([4]; 50.0 g a.i./ha, 35 DAT): 97%
- Herbicidal effect (%) on Digitaria sanguinalis ([4]; 50.0 g a.i./ha, 56 DAT): 98%
- Herbicidal effect (%) on Digitaria sanguinalis ([4]; 50.0 g a.i./ha, 68 DAT): 99%
- Herbicidal effect (%) on Digitaria sanguinalis ([4]; 50.0 g a.i./ha, 107 DAT): 99%
- Herbicidal effect (%) on Digitaria sanguinalis ([4]; 50.0 g a.i./ha, 138 DAT): 100%
- Herbicidal effect (%) on Digitaria sanguinalis ([4]; 50.0 g a.i./ha, 180 DAT): 100%
- Herbicidal effect (%) on Digitaria sanguinalis ([4]; 100.0 g a.i./ha, 35 DAT): 96%
- Herbicidal effect (%) on Digitaria sanguinalis ([4]; 100.0 g a.i./ha, 56 DAT): 99%
- Herbicidal effect (%) on Digitaria sanguinalis ([4]; 100.0 g a.i./ha, 68 DAT): 99%
- Herbicidal effect (%) on Digitaria sanguinalis ([4]; 100.0 g a.i./ha, 107 DAT): 99%
- Herbicidal effect (%) on Digitaria sanguinalis ([4]; 100.0 g a.i./ha, 138 DAT): 99%
- Herbicidal effect (%) on Digitaria sanguinalis ([4]; 100.0 g a.i./ha, 180 DAT): 99%
- Herbicidal effect (%) on Digitaria sanguinalis ([4]; 200.0 g a.i./ha, 35 DAT): 98%
- Herbicidal effect (%) on Digitaria sanguinalis ([4]; 200.0 g a.i./ha, 56 DAT): 99%
- Herbicidal effect (%) on Digitaria sanguinalis ([4]; 200.0 g a.i./ha, 68 DAT): 99%
- Herbicidal effect (%) on Digitaria sanguinalis ([4]; 200.0 g a.i./ha, 107 DAT): 100%
- Herbicidal effect (%) on Digitaria sanguinalis ([4]; 200.0 g a.i./ha, 138 DAT): 100%
- Herbicidal effect (%) on Digitaria sanguinalis ([4]; 200.0 g a.i./ha, 180 DAT): 100%
